Source: ChEMBL document CHEMBL6127066, “Pegylation enhances the anti-osteoporosis activity of acacetin in both ovariectomized and LPS-stimulated mice” (Bioorg Med Chem, 2024)
Activity calls are given as the source filed them. The calls are words filed in the database; no cut-off is given here.

Legend:
[1] = Cytotoxicity against mouse BMDM cells at <20 uM measured after 48 to 96 hrs by CCK-8 method; assay type: toxicity, cell-based; conditions: time 48-96 hrs
BMDM [2] = test: Anti-osteoclastogenesis activity in RANKL-induced mouse BMDM cells assessed as reduction in TRAP-positive area at 10 uM measured after 4 days by TRAP staining based analysis; assay type: functional, cell-based; conditions: time 4.0 day
BMDM [3] = test: Anti-osteoclastogenesis activity in RANKL-induced mouse BMDM cells assessed as reduction in number of TRAP-positive cells at 10 uM measured after 4 days by TRAP staining based analysis; assay type: functional, cell-based; conditions: time 4.0 day
BMDM [4] = test: Anti-osteoclastogenesis activity in RANKL-induced mouse BMDM cells assessed as downregulation of Acp mRNA expression at 10 uM measured after 4 days by RT-PCR analysis; assay type: functional, cell-based; conditions: time 4.0 day
BMDM [5] = test: Anti-osteoclastogenesis activity in RANKL-induced mouse BMDM cells assessed as downregulation of Fos mRNA expression at 10 uM measured after 4 days by RT-PCR analysis; assay type: functional, cell-based; conditions: time 4.0 day
BMDM [6] = test: Anti-osteoclastogenesis activity in RANKL-induced mouse BMDM cells assessed as downregulation of Ctsk-mRNA expression at 10 uM measured after 4 days by RT-PCR analysis; assay type: functional, cell-based; conditions: time 4.0 day
BMDM [7] = test: Anti-osteoclastogenesis activity in RANKL-induced mouse BMDM cells assessed as downregulation of TRAP mRNA expression at 10 uM measured after 4 days by RT-PCR analysis; assay type: functional, cell-based; conditions: time 4.0 day
[8] = Drug uptake in male C57BL/6J mouse serum assessed as increase in acacetin level at 50 mg/kg, ip measured after 10 mins; assay type: ADME, organism-based; conditions: in vivo
Mus musculus [9] = test: Anti-osteoporosis activity LPS induced male C57BL/6J mouse model assessed as increase in BMD in femur at 5 mg/kg measured every 2 days for 12 day by Micro-CT 3D scanning method; assay type: functional, organism-based
Mus musculus [10] = test: Anti-osteoporosis activity LPS induced male C57BL/6J mouse model assessed as increase in trabecular bone volume fraction in femur at 5 mg/kg measured every 2 days for 12 day by Micro-CT 3D scanning method; assay type: functional, organism-based
Mus musculus [11] = test: Anti-osteoporosis activity LPS induced male C57BL/6J mouse model assessed as increase in trabecular thickness in femur at 5 mg/kg measured every 2 days for 12 day by Micro-CT 3D scanning method; assay type: functional, organism-based
Mus musculus [12] = test: Anti-osteoporosis activity LPS induced male C57BL/6J mouse model assessed as increase in trabecular number in femur at 5 mg/kg measured every 2 days for 12 day by Micro-CT 3D scanning method; assay type: functional, organism-based
Mus musculus [13] = species: Mus musculus; test: Anti-osteoporosis activity LPS induced male C57BL/6J mouse model assessed as increase in density of cancellous bone trabeculae in femur by H and E staining based analysis; assay type: functional, organism-based
Mus musculus [14] = species: Mus musculus; test: Anti-osteoporosis activity LPS induced male C57BL/6J mouse model assessed as attenuation of number of osteoclast per unit of trabecular bone area by TRAP staining based analysis; assay type: functional, organism-based
Mus musculus [15] = test: Anti-osteoporosis activity in OVX-induced […] C57BL/6J mouse model assessed as improvement in BMD in femur at 5 mg/kg measured every three days for 7 weeks by Micro-CT 3D scanning analysis; assay type: functional, organism-based
Mus musculus [16] = test: Anti-osteoporosis activity in OVX-induced […] C57BL/6J mouse model assessed as improvement in trabecular bone volume fraction in femur at 5 mg/kg measured every three days for 7 weeks by Micro-CT 3D scanning analysis; assay type: functional, organism-based
Mus musculus [17] = test: Anti-osteoporosis activity in OVX-induced […] C57BL/6J mouse model assessed as improvement in trabecular thickness in femur at 5 mg/kg measured every three days for 7 weeks by Micro-CT 3D scanning analysis; assay type: functional, organism-based
Mus musculus [18] = test: Anti-osteoporosis activity in OVX-induced […] C57BL/6J mouse model assessed as improvement in trabecular number in femur at 5 mg/kg measured every three days for 7 weeks by Micro-CT 3D scanning analysis; assay type: functional, organism-based
Mus musculus [19] = species: Mus musculus; test: Anti-osteoporosis activity OVX-induced […] C57BL/6J mouse model assessed as reduction of trabecular bone in femur by H and E staining based analysis; assay type: functional, organism-based
Mus musculus [20] = species: Mus musculus; test: Anti-osteoporosis activity OVX-induced […] C57BL/6J mouse model assessed as attenuation of number of osteoclast by TRAP staining based analysis; assay type: functional, organism-based
RAW264.7 [21] = test: Antiinflammatory activity in LPS-induced mouse RAW264.7 cells assessed as inhibition of Il6 mRNA expression at 10 uM preincubated for 3 hrs followed by LPS stimulation and measured after 6 hrs by RT-PCR analysis; assay type: functional, cell-based; conditions: time 9.0 hrs
RAW264.7 [22] = test: Antiinflammatory activity in LPS-induced mouse RAW264.7 cells assessed as inhibition of Tnf mRNA expression at 10 uM preincubated for 3 hrs followed by LPS stimulation and measured after 6 hrs by RT-PCR analysis; assay type: functional, cell-based; conditions: time 9.0 hrs
[23] = Drug uptake in male C57BL/6J mouse serum assessed as increase in acacetin level at 93.6 mg/kg, ip measured after 10 mins; assay type: ADME, organism-based; conditions: in vivo
Mus musculus [24] = test: Anti-osteoporosis activity LPS induced male C57BL/6J mouse model assessed as increase in trabecular bone volume fraction in femur at 9.36 mg/kg measured every 2 days for 12 day by Micro-CT 3D scanning method; assay type: functional, organism-based
Mus musculus [25] = test: Anti-osteoporosis activity LPS induced male C57BL/6J mouse model assessed as increase in trabecular number in femur at 9.36 mg/kg measured every 2 days for 12 day by Micro-CT 3D scanning method; assay type: functional, organism-based
Mus musculus [26] = species: Mus musculus; test: Anti-osteoporosis activity LPS induced male C57BL/6J mouse model assessed as reduction of CTX-I level by ELISA method; assay type: functional, organism-based
Mus musculus [27] = test: Anti-osteoporosis activity in OVX-induced […] C57BL/6J mouse model assessed as improvement in BMD in femur at 9.36 mg/kg measured every three days for 7 weeks by Micro-CT 3D scanning analysis; assay type: functional, organism-based
Mus musculus [28] = test: Anti-osteoporosis activity in OVX-induced […] C57BL/6J mouse model assessed as improvement in trabecular bone volume fraction in femur at 9.36 mg/kg measured every three days for 7 weeks by Micro-CT 3D scanning analysis; assay type: functional, organism-based
Mus musculus [29] = test: Anti-osteoporosis activity in OVX-induced […] C57BL/6J mouse model assessed as improvement in trabecular thickness in femur at 9.36 mg/kg measured every three days for 7 weeks by Micro-CT 3D scanning analysis; assay type: functional, organism-based
Mus musculus [30] = test: Anti-osteoporosis activity in OVX-induced […] C57BL/6J mouse model assessed as improvement in trabecular number in femur at 9.36 mg/kg measured every three days for 7 weeks by Micro-CT 3D scanning analysis; assay type: functional, organism-based
Mus musculus [31] = species: Mus musculus; test: Anti-osteoporosis activity OVX-induced […] C57BL/6J mouse model assessed as reduction of CTX-I level by ELISA method; assay type: functional, organism-based

| SMILES | Activity [1] | Activity (BMDM [2]) | Activity (BMDM [3]) | Activity (BMDM [4]) | Activity (BMDM [5]) | Activity (BMDM [6]) | Activity (BMDM [7]) | Activity (Mus musculus [13]) | Activity (Mus musculus [14]) | Activity (Mus musculus [19]) | Activity (Mus musculus [20]) | other results |
| --- | --- | --- | --- | --- | --- | --- | --- | --- | --- | --- | --- | --- |
| COc1ccc(-c2cc(=O)c3c(O)cc(O)cc3o2)cc1 [ACACETIN] | Non-Toxic | Active | Active | Active | Active | Active | Active | Active | Active | Active | Active | Drug uptake [8]: 489.59 ng/mL; Activity (Mus musculus [9]): Active; Activity (Mus musculus [10]): Active; Activity (Mus musculus [11]): Active; Activity (Mus musculus [12]): Active; Activity (Mus musculus [15]): Active; Activity (Mus musculus [16]): Active; Activity (Mus musculus [17]): Active; Activity (Mus musculus [18]): Active |
| COCCOCCOCCOCCOCC(=O)Oc1cc(O)c2c(=O)cc(-c3ccc(OC)cc3)oc2c1 | Non-Toxic | Active | Active | Active | Active | Active | Active | Active | Active | Active | Active | Activity (RAW264.7 [21]): Active; Activity (RAW264.7 [22]): Active; Drug uptake [23]: 3528.82 ng/mL; Activity (Mus musculus [24]): Active; Activity (Mus musculus [25]): Active; Activity (Mus musculus [26]): Active; Activity (Mus musculus [27]): Active; Activity (Mus musculus [28]): Active; Activity (Mus musculus [29]): Active; Activity (Mus musculus [30]): Active; Activity (Mus musculus [31]): Active |
